Experimental data: ChEMBL document CHEMBL1201862, “PubChem BioAssay data set” (2004)
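Where inhibition never reached the appropriate level, the endpoint shown equals the highest concentration tested. Otherwise, values were interpolated linearly from a five-concentration, 48-hour dose response in 96-well plates. GI50 = concentration required for 50% inhibition of growth.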 Calls of active or inactive are those of the source. No stated cut-off is given here; in the data, active = GI50 up to about 1.1 µM and inactive = higher.

What was measured:
Experiment in all cases: inhibition of tumour cell growth, NCI panel, 48 h
A549 = system: A549
CCRF-CEM = system: CCRF-CEM
HCT-116 = system: HCT-116
HCT-15 = system: HCT-15
MOLT-4 = system: MOLT-4
Malme-3M = system: Malme-3M
NCI-H23 = system: NCI-H23
NCI-H460 = system: NCI-H460
OVCAR-4 = system: OVCAR-4
SF-268 = system: SF-268
SK-MEL-28 = system: SK-MEL-28
SK-MEL-2 = system: SK-MEL-2
SK-MEL-5 = system: SK-MEL-5
SK-OV-3 = system: SK-OV-3
SNB-19 = system: SNB-19
TK-10 = system: TK-10
NCI-H226 = system: NCI-H226
SR = system: SR

Measured: GI50

COc1ccccc1-c1cc(=O)c2cc(C)c(C)c(C(=O)O)c2o1
inactive: A549 > 100 µM | CCRF-CEM > 100 µM | HCT-116 > 100 µM | MOLT-4 > 100 µM | Malme-3M > 100 µM | NCI-H23 > 100 µM | NCI-H460 > 100 µM | OVCAR-4 > 100 µM | SF-268 > 100 µM | SK-MEL-28 > 100 µM | SK-MEL-2 > 100 µM | SK-MEL-5 > 100 µM | SK-OV-3 > 100 µM | SNB-19 > 100 µM | TK-10 > 100 µM
> 100 µM: HCT-15

O=c1[nH]c(=O)n(C2OC(COP(=O)(O)OP(=O)(O)OC3OC(CO)C(O)C(O)C3O)C(O)C2O)cc1F (stereo not drawn)
0.0384 µM: HCT-15
inactive: OVCAR-4 1.26 µM | TK-10 1.67 µM
active: A549 0.0149 µM | CCRF-CEM 0.0929 µM | HCT-116 < 0.0129 µM | MOLT-4 0.0522 µM | Malme-3M 0.21 µM | NCI-H226 0.148 µM | NCI-H23 0.147 µM | NCI-H460 < 0.014 µM | SF-268 0.0475 µM | SK-MEL-28 0.229 µM | SK-MEL-2 0.486 µM | SK-MEL-5 0.407 µM | SK-OV-3 0.975 µM | SNB-19 0.156 µM | SR 0.0418 µM

O=C1CC(c2ccccc2)n2cccc21 (stereo not drawn)
> 100 µM: HCT-15
inactive: A549 > 100 µM | CCRF-CEM > 100 µM | HCT-116 > 100 µM | MOLT-4 > 10 µM | NCI-H226 > 100 µM | NCI-H23 > 100 µM | OVCAR-4 > 100 µM | SF-268 > 100 µM | SK-MEL-28 > 100 µM | SK-MEL-2 > 100 µM | SK-MEL-5 > 100 µM | SK-OV-3 > 100 µM | SNB-19 > 100 µM | SR > 100 µM | TK-10 > 100 µM

COc1cc(/C=C2\NC(=O)C3Cc4c(OC)c(C)c(OC)c(OC)c4C2N3C)c(OC)c(C)c1OC (stereo not drawn)
inactive: A549 > 100 µM | CCRF-CEM > 100 µM | HCT-116 > 100 µM | MOLT-4 44.2 µM | Malme-3M > 100 µM | NCI-H226 > 100 µM | NCI-H23 > 100 µM | OVCAR-4 > 100 µM | SF-268 > 100 µM | SK-MEL-28 > 100 µM | SK-MEL-5 > 100 µM | SK-OV-3 > 100 µM | SNB-19 > 100 µM | SR > 100 µM | TK-10 > 100 µM

Cc1c(C(=O)C/C(=N/NC(=O)C[N+](C)(C)C)C(=O)Nc2ccc(Cl)cc2)[n+]([O-])c2ccccc2[n+]1[O-]
inactive: A549 > 100 µM | CCRF-CEM > 100 µM | HCT-116 > 100 µM | MOLT-4 > 100 µM | Malme-3M > 100 µM | NCI-H226 > 100 µM | NCI-H23 > 100 µM | NCI-H460 > 100 µM | OVCAR-4 > 100 µM | SF-268 > 100 µM | SK-MEL-28 > 100 µM | SK-MEL-2 > 100 µM | SK-MEL-5 > 100 µM | SNB-19 > 100 µM | SR > 100 µM | TK-10 > 100 µM
> 100 µM: HCT-15

CC1=C2C(=CC(C)(C)C2O)C(=O)C(C)(O)C12CC2 (stereo not drawn)
0.00393 µM: HCT-15
active: A549 0.0135 µM | CCRF-CEM 0.00531 µM | HCT-116 0.00325 µM | MOLT-4 0.00253 µM | Malme-3M 0.012 µM | NCI-H226 0.033 µM | NCI-H23 0.00681 µM | NCI-H460 0.0018 µM | OVCAR-4 0.00513 µM | SF-268 0.00658 µM | SK-MEL-28 0.0247 µM | SK-MEL-2 0.0121 µM | SK-MEL-5 0.00567 µM | SK-OV-3 0.0262 µM | SNB-19 0.019 µM | SR 0.00249 µM | TK-10 0.0216 µM

COC1=CC(=O)C(Br)=CC1=O
inactive: A549 > 100 µM | CCRF-CEM 2.54 µM | MOLT-4 3.3 µM | Malme-3M 21 µM | NCI-H23 18.9 µM | NCI-H460 > 100 µM | OVCAR-4 17.9 µM | SF-268 18.6 µM | SK-MEL-28 19.5 µM | SK-MEL-2 20.5 µM | SK-MEL-5 17.9 µM | SK-OV-3 > 100 µM | SNB-19 17.8 µM | TK-10 19.9 µM
21.6 µM: HCT-15

CSc1nc2c(nc(N)n2C2OC(CO)C(O)C(O)C2O)c(=O)[nH]1 (stereo not drawn)
inactive: A549 > 100 µM | CCRF-CEM > 100 µM | HCT-116 > 100 µM | MOLT-4 > 100 µM | Malme-3M > 100 µM | NCI-H226 > 100 µM | NCI-H23 > 100 µM | NCI-H460 > 100 µM | OVCAR-4 > 100 µM | SF-268 > 100 µM | SK-MEL-28 > 100 µM | SK-MEL-5 > 100 µM | SK-OV-3 > 100 µM | SNB-19 > 100 µM | SR > 100 µM | TK-10 > 100 µM

O=C(c1nc2ccc(Cl)cc2nc1O)C(O)c1ccc2c(c1)OCO2 (stereo not drawn)
inactive: A549 > 100 µM | CCRF-CEM 4.17 µM | MOLT-4 28.4 µM | Malme-3M > 100 µM | NCI-H226 > 100 µM | NCI-H23 > 100 µM | NCI-H460 > 100 µM | OVCAR-4 71.4 µM | SF-268 91 µM | SK-MEL-28 78.5 µM | SK-MEL-2 > 100 µM | SK-OV-3 > 100 µM | TK-10 > 100 µM

O=C1N(c2ccc(Cl)cc2)C(=O)C2(SC=NN2Cc2ccccc2)N1c1ccc(Cl)cc1 (stereo not drawn)
inactive: A549 96.4 µM | CCRF-CEM 7.57 µM | HCT-116 9.18 µM | MOLT-4 7.87 µM | Malme-3M > 100 µM | NCI-H226 > 100 µM | NCI-H23 8.24 µM | NCI-H460 > 100 µM | OVCAR-4 > 100 µM | SF-268 > 100 µM | SK-MEL-28 > 100 µM | SK-MEL-5 > 100 µM | SK-OV-3 > 100 µM | SNB-19 > 100 µM | SR 9.95 µM | TK-10 > 100 µM

O=C(Nc1ccccc1)OCc1nc2c([nH]1)C(=O)C=CC2=O
inactive: A549 16.4 µM | CCRF-CEM 3.34 µM | HCT-116 14.9 µM | MOLT-4 2.32 µM | Malme-3M 6.4 µM | NCI-H226 18.7 µM | NCI-H23 19.4 µM | NCI-H460 19.8 µM | OVCAR-4 14.3 µM | SK-MEL-28 15.6 µM | SK-MEL-2 19.8 µM | SK-MEL-5 14.3 µM | SK-OV-3 15.9 µM | SNB-19 13.8 µM | SR 19.5 µM | TK-10 14 µM
18.2 µM: HCT-15

CCC12C[N+]3([O-])CCc4c([nH]c5ccccc45)C(C(=O)OC)(c4cc5c(cc4OC)N(C)C4C(O)(C(=O)OC)C(OC(C)=O)C6(CC)C=CCN7CCC54C76)CC(C3)C1O2 (stereo not drawn)
inactive: Malme-3M 1.61 µM | OVCAR-4 13.3 µM | TK-10 5.62 µM
active: A549 0.826 µM | CCRF-CEM 0.401 µM | HCT-116 0.41 µM | MOLT-4 0.406 µM | NCI-H23 0.465 µM | NCI-H460 0.424 µM | SF-268 0.675 µM | SK-MEL-28 0.236 µM | SK-MEL-2 0.234 µM | SK-MEL-5 0.288 µM | SK-OV-3 0.336 µM | SNB-19 0.597 µM
4.47 µM: HCT-15

O=C(O)C1(C(=O)O)CC1
inactive: A549 > 100 µM | CCRF-CEM > 100 µM | HCT-116 > 100 µM | MOLT-4 > 100 µM | Malme-3M > 100 µM | NCI-H23 > 100 µM | NCI-H460 > 100 µM | OVCAR-4 > 100 µM | SF-268 > 100 µM | SK-MEL-28 > 100 µM | SK-MEL-2 > 100 µM | SK-MEL-5 > 100 µM | SK-OV-3 > 100 µM | SNB-19 > 100 µM | TK-10 > 100 µM
> 100 µM: HCT-15

Nc1c(C(=O)Nc2ccccc2O)[n+]([O-])c2ccccc2[n+]1[O-]
30.5 µM: HCT-15
inactive: A549 36.1 µM | HCT-116 31.7 µM | MOLT-4 45.8 µM | Malme-3M 83.9 µM | NCI-H226 > 100 µM | NCI-H23 23.9 µM | NCI-H460 27 µM | OVCAR-4 > 100 µM | SK-MEL-28 79.4 µM | SK-MEL-2 40.2 µM | SK-MEL-5 14.7 µM | SK-OV-3 > 100 µM | SNB-19 > 100 µM | SR 44.3 µM

COc1cccc(N2C(=O)/C(=C/c3ccc(N(CCC#N)CCC#N)cc3)N=C2c2cc([N+](=O)[O-])ccc2Cl)c1
50.4 µM: HCT-15
inactive: CCRF-CEM 48.8 µM | MOLT-4 22.3 µM | Malme-3M > 100 µM | NCI-H226 > 100 µM | NCI-H23 89.1 µM | NCI-H460 43.5 µM | OVCAR-4 > 100 µM | SF-268 > 100 µM | SK-MEL-28 > 100 µM | SK-MEL-2 > 100 µM | SK-MEL-5 84.9 µM | SK-OV-3 > 100 µM | SNB-19 > 100 µM | SR 32.1 µM

O=C(c1ccccc1)C(c1ccccc1)C1(O)C(=O)Nc2ccc(Br)cc21 (stereo not drawn)
60.1 µM: HCT-15
inactive: A549 > 100 µM | CCRF-CEM 17.7 µM | HCT-116 37.9 µM | MOLT-4 23.6 µM | Malme-3M 76.6 µM | NCI-H226 40.5 µM | NCI-H23 50.4 µM | NCI-H460 > 100 µM | OVCAR-4 32.8 µM | SF-268 72.6 µM | SK-MEL-28 46.1 µM | SK-MEL-2 61.1 µM | SK-OV-3 > 100 µM | SNB-19 > 100 µM | SR 18.7 µM | TK-10 > 100 µM

O=C(OCc1ccccc1)n1cccc1
inactive: A549 > 100 µM | CCRF-CEM > 100 µM | HCT-116 84.9 µM | MOLT-4 76.9 µM | Malme-3M > 100 µM | NCI-H226 > 100 µM | NCI-H23 98.6 µM | NCI-H460 > 100 µM | OVCAR-4 > 100 µM | SF-268 > 100 µM | SK-MEL-28 > 100 µM | SK-MEL-2 > 100 µM | SK-MEL-5 > 100 µM | SK-OV-3 > 100 µM | SNB-19 > 100 µM | SR 88.3 µM | TK-10 > 100 µM
